Measured values as given in patent US5151417A, “3-substituted vinyl cephalosporin derivatives” (Eisai Co., Ltd., priority 1989, dated 1992).
Converted amounts (≈) assume the structure as drawn. Like-named read-outs stand apart in the source and are kept apart here.

Key:
Assay type in all cases: cell-based
[1] = tested on: Staphylococcus aureus 209PJCl; experiment: In vitro antibacterial activity, Staphylococcus aureus 209PJCl (Table 1)
Protocol: (§1) Typical compounds out of the compounds described in Examples were classified into some groups. On each compound group, in vitro antibacterial activities were tested by a method known per se in the art.

[2] = tested on: Klebsiella pneumoniae IID 875; experiment: In vitro antibacterial activity, Klebsiella pneumoniae IID 875 (Table 1); settings: IID875
Protocol: as §1

[3] = tested on: Morganella morganii IID 602; experiment: In vitro antibacterial activity, Morganella morganii IID 602 (Table 1); settings: IID602
Protocol: as §1

[4] = tested on: Escherichia coli MIHJ JC-2; experiment: In vitro antibacterial activity, Escherichia coli MIHJ JC-2 (Table 1); settings: MIHJJC2
Protocol: as §1

[5] = tested on: Serratia marcescens IID 620; experiment: In vitro antibacterial activity, Serratia marcescens IID 620 (Table 1); settings: IID620
Protocol: as §1

[6] = Staphylococcus aureus 209PJCl, read-out: MIC
[7] = Klebsiella pneumoniae IID 875, read-out: MIC
[8] = Morganella morganii IID 602, read-out: MIC
[9] = Escherichia coli MIHJ JC-2, read-out: MIC
[10] = Serratia marcescens IID 620, read-out: MIC

Row | MIC [1, 6] [µg/mL] | MIC [2, 7] [µg/mL] | MIC [3, 8] [µg/mL] | MIC [4, 9] [µg/mL] | MIC [5, 10] [µg/mL] | Compound | MIC ([1]; Staphylococcus aureus, 209PJCL) [µg/mL] | MIC ([2]; Klebsiella pneumoniae) [µg/mL] | MIC ([3]; Morganella morganii) [µg/mL] | MIC ([4]; Escherichia coli) [µg/mL] | MIC ([5]; Serratia marcescens) [µg/mL]
1 |  |  |  |  |  | NC(=O)OC/C=C/C1=C(C(=O)[O-])N2C(=O)C(NC(=O)/C(=N\O)c3csc(N)n3)[C@H]2SC1.[Na+] (stereo partly drawn) [Example 13, Sodium 7-[(Z)-2-(2-aminothiazol-4-yl)-2-hydroxyiminoacetamido]-3-[(E)-3-carbamoyloxy-1-propenyl]-3-cephem-4-carboxylate] | 0.1 | 0.025 | 0.05 | 0.1 | 0.1
2 |  |  |  |  |  | NC(=O)OC/C=C\C1=C(C(=O)[O-])N2C(=O)C(NC(=O)/C(=N\O)c3csc(N)n3)[C@H]2SC1.[Na+] (stereo partly drawn) [Example 1, Sodium 7-[(Z)-2-(2-aminothiazol-4-yl)-2-hydroxyiminoacetamido]-3-[(Z)-3-carbamoyloxy-1-propenyl]-3-cephem-4-carboxylate] | 0.1 | 0.012 | 0.012 | 0.025 | 0.025
3 |  |  |  |  |  | CO/N=C(\C(=O)NC1C(=O)N2C(C(=O)[O-])=C(/C=C\COC(N)=O)CS[C@H]12)c1csc(N)n1.[Na+] (stereo partly drawn) [Example 7, Sodium 7-[(Z)-2-(2-aminothiazol-4-Yl)-2-methoxyiminoacetamido]-3-[(Z)-3-carbamoyloxy-1-propenyl]-3-cephem-4-carboxylate] | 0.8 | 0.025 | 0.025 | 0.2 | 0.025
4 | 0.1 (≈ 0.209 µM) | 0.1 (≈ 0.209 µM) | 0.05 (≈ 0.105 µM) | 0.1 (≈ 0.209 µM) | 0.8 (≈ 1.68 µM) | Nc1nc(/C(=N/O)C(=O)NC2C(=O)N3C(C(=O)O)=C(/C=C/Cn4ncnn4)CSC23)cs1 (stereo not drawn) [Example 12, 7-[2-(2-Aminothiazole)-2-hydroxyiminoacetamido]-3-(3-2H-tetrazolyl-1-propenyl-1-yl)-3-cephem-4-carboxylic Acid] |  |  |  |  | 
5 | 0.1 (≈ 0.209 µM) | 0.05 (≈ 0.105 µM) | 0.05 (≈ 0.105 µM) | 0.1 (≈ 0.209 µM) | 0.8 (≈ 1.68 µM) | Nc1nc(/C(=N/O)C(=O)NC2C(=O)N3C(C(=O)O)=C(/C=C/Cn4cnnn4)CSC23)cs1 (stereo not drawn) [Example 11, 7-[2-(2-Aminothiazole)-2-hydroxyiminoacetamido]-3-(3-1H-tetrazolyl-1-propenyl-1-yl)-3-cephem-4-carboxylate] |  |  |  |  | 
6 |  |  |  |  |  | CNC(=O)OC/C=C\C1=C(C(=O)[O-])N2C(=O)C(NC(=O)/C(=N\O)c3csc(N)n3)[C@H]2SC1.[Na+] (stereo partly drawn) [Example 9, Sodium 7-[(Z)-2-(2-aminothiazol-4-yl)-2-hydroxyiminoacetamido]-3-[(Z)-3-(N-methylcarbamoyloxy)-1-propenyl]-3-cephem-4-carboxylate] | 0.1 | 0.012 | 0.1 | 0.05 | 0.8
